Laboratory results taken from ChEMBL document CHEMBL6071170, “Development of novel focal adhesion kinase (FAK) inhibitors for targeting cancer: Structural insights and therapeutic potential” (Eur J Med Chem, 2024).

What was measured:
[1] = molecular target: Fibroblast growth factor receptor (Homo sapiens, UniProt P22607+P11362+P22455+P21802); test: Inhibition of human recombinant FGFR by FRET assay; type: protein assay
Focal adhesion kinase 1 [2] = molecular target: T1, Focal adhesion kinase 1 (Homo sapiens, UniProt Q05397); test: Inhibition of N-terminal his-tagged human (1 to 422 residues) FAK
[3] = molecular target: Protein cereblon/Focal adhesion kinase 1 (Homo sapiens, UniProt Q05397+Q96SW2); test: PROTAC activity at CRBN/FAK in human PC3 cells assessed as protein degradation incubated for 12 hrs by Western blot analysis relative to control; type: cell-based; conditions: pc-3
Focal adhesion kinase 1 [4] = molecular target: T1, Focal adhesion kinase 1; test: Inhibition of FAK (unknown origin)
[5] = Oral bioavailability in mouse; type: ADME, organism-based; conditions: in vivo
Focal adhesion kinase 1 [6] = molecular target: T1, Focal adhesion kinase 1; test: Inhibition of FAK (unknown origin) by ADP-Glo kinase assay
[7] = molecular target: Epidermal growth factor receptor (Homo sapiens, UniProt P00533, T790M); test: Inhibition of EGFR T790M mutant (unknown origin)
Focal adhesion kinase 1 [8] = molecular target: T1, Focal adhesion kinase 1; test: Inhibition of human FAK by FRET assay
[9] = Plasma stability in human assessed as half life by LC-MS/MS analysis; type: ADME, cell-free
[10] = molecular target: Serine/threonine-protein kinase PLK1 (Homo sapiens, UniProt P53350); test: Inhibition of PLK1 (unknown origin)
Focal adhesion kinase 1 [11] = molecular target: T1, Focal adhesion kinase 1; test: Inhibition of FAK (unknown origin) by FRET analysis
[12] = molecular target: T2, Protein deacetylase HDAC6 (Homo sapiens, UniProt Q9UBN7); test: Inhibition of HDAC6 (unknown origin)
T2 sequence (Q9UBN7 whole entry): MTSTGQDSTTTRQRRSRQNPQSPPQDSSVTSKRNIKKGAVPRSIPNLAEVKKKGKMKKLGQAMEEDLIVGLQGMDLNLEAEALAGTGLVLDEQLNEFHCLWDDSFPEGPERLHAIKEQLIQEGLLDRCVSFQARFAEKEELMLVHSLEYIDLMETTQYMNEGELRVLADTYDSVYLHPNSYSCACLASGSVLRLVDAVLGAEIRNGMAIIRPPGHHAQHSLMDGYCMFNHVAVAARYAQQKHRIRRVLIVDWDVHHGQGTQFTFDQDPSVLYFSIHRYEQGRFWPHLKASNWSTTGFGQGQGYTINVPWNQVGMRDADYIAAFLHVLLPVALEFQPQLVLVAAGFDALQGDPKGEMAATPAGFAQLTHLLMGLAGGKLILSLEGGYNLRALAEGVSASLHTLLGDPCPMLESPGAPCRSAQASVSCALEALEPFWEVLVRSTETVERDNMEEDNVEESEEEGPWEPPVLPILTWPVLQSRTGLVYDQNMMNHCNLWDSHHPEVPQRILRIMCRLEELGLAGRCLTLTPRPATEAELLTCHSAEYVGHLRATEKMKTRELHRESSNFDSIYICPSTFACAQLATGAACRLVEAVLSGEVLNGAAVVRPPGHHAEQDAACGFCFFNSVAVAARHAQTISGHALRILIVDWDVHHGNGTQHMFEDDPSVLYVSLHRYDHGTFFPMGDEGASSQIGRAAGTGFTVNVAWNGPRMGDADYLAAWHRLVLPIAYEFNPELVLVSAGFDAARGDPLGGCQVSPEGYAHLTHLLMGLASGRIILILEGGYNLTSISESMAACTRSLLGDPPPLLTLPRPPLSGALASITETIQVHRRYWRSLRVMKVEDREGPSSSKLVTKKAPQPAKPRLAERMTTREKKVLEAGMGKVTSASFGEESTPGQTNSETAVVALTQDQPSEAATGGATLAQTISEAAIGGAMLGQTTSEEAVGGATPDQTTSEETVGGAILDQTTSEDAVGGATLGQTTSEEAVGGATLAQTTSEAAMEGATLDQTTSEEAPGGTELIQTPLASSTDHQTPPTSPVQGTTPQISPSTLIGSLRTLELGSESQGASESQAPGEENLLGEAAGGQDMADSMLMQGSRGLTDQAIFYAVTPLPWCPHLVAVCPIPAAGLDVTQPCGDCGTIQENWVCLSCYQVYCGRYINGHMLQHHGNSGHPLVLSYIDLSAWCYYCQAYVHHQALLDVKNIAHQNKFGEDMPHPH

BXPC-3 = test: Antiproliferative activity against human BXPC-3 cells; type: functional, cell-based
[13] = molecular target: T3, Protein-tyrosine kinase 2-beta (Homo sapiens, UniProt Q14289); test: Inhibition of PYK2 (unknown origin) by KinomeScan assay
Focal adhesion kinase 1 [14] = molecular target: T1, Focal adhesion kinase 1; test: Inhibition of FAK (unknown origin) by HTRF assay
[15] = molecular target: ALK tyrosine kinase receptor (Homo sapiens, UniProt Q9UM73); test: Inhibition of ALK (unknown origin)
[16] = molecular target: Proto-oncogene tyrosine-protein kinase ROS (Homo sapiens, UniProt P08922); test: Inhibition of ROS1 (unknown origin)
[17] = molecular target: T3, Protein-tyrosine kinase 2-beta; test: Inhibition of PYK2 (unknown origin)
Focal adhesion kinase 1 [18] = molecular target: T1, Focal adhesion kinase 1; test: Binding affinity to FAK (unknown origin) assessed as inhibition constant

T1 sequence (Q05397 whole entry, the tested form may be a part): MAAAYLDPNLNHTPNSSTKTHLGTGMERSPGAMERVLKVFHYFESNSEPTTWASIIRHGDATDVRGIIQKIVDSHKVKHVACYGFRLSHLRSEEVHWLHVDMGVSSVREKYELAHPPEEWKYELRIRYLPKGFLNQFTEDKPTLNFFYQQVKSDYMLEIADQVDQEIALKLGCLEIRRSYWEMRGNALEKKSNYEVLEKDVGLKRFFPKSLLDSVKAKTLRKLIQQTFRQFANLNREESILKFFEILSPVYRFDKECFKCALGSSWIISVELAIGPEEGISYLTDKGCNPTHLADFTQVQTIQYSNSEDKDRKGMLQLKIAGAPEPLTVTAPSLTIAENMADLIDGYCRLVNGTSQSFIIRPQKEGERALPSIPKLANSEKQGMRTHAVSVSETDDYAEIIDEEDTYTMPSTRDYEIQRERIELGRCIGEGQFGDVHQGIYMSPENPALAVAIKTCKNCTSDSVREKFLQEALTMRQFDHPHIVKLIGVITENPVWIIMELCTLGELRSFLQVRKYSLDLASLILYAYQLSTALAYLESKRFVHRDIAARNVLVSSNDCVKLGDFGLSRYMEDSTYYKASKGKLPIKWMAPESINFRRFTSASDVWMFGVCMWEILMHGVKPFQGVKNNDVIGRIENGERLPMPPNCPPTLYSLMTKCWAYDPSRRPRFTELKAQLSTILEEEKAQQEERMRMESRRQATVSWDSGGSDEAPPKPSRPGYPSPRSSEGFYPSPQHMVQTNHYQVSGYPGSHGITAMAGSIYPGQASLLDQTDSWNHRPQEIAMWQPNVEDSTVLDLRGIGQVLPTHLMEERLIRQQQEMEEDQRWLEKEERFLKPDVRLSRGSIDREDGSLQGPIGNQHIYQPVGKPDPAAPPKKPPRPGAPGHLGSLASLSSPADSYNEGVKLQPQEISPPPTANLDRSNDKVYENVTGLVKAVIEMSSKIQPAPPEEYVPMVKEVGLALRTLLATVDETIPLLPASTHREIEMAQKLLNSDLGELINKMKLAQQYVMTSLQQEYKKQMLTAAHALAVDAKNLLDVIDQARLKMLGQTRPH
T3 sequence (Q14289 whole entry): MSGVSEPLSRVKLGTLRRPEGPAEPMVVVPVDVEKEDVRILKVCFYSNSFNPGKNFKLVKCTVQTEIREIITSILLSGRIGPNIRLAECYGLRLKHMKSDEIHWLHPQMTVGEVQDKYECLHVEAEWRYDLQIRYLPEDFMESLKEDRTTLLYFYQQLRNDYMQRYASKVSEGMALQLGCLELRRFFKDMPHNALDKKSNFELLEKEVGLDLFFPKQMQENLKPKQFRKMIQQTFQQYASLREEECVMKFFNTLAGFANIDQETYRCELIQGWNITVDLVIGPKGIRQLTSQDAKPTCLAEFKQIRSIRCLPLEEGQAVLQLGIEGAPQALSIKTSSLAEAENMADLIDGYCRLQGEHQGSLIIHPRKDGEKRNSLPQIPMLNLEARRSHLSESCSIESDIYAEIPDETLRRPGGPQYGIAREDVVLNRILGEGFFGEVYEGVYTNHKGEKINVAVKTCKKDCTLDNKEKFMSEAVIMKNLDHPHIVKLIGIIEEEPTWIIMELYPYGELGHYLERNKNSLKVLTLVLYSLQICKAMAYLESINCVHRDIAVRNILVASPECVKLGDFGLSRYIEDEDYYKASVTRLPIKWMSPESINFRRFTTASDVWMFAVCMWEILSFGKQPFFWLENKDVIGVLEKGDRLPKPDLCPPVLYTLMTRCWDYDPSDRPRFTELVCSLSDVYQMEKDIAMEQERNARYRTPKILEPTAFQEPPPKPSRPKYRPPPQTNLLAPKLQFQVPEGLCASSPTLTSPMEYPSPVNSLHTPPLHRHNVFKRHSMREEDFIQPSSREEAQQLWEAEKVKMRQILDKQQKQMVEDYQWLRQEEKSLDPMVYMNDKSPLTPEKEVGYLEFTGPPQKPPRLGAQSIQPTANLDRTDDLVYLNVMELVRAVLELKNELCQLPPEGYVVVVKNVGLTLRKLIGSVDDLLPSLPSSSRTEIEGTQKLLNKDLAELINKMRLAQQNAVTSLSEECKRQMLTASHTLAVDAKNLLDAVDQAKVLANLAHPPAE
Chain of Proto-oncogene tyrosine-protein kinase ROS (P08922 whole entry): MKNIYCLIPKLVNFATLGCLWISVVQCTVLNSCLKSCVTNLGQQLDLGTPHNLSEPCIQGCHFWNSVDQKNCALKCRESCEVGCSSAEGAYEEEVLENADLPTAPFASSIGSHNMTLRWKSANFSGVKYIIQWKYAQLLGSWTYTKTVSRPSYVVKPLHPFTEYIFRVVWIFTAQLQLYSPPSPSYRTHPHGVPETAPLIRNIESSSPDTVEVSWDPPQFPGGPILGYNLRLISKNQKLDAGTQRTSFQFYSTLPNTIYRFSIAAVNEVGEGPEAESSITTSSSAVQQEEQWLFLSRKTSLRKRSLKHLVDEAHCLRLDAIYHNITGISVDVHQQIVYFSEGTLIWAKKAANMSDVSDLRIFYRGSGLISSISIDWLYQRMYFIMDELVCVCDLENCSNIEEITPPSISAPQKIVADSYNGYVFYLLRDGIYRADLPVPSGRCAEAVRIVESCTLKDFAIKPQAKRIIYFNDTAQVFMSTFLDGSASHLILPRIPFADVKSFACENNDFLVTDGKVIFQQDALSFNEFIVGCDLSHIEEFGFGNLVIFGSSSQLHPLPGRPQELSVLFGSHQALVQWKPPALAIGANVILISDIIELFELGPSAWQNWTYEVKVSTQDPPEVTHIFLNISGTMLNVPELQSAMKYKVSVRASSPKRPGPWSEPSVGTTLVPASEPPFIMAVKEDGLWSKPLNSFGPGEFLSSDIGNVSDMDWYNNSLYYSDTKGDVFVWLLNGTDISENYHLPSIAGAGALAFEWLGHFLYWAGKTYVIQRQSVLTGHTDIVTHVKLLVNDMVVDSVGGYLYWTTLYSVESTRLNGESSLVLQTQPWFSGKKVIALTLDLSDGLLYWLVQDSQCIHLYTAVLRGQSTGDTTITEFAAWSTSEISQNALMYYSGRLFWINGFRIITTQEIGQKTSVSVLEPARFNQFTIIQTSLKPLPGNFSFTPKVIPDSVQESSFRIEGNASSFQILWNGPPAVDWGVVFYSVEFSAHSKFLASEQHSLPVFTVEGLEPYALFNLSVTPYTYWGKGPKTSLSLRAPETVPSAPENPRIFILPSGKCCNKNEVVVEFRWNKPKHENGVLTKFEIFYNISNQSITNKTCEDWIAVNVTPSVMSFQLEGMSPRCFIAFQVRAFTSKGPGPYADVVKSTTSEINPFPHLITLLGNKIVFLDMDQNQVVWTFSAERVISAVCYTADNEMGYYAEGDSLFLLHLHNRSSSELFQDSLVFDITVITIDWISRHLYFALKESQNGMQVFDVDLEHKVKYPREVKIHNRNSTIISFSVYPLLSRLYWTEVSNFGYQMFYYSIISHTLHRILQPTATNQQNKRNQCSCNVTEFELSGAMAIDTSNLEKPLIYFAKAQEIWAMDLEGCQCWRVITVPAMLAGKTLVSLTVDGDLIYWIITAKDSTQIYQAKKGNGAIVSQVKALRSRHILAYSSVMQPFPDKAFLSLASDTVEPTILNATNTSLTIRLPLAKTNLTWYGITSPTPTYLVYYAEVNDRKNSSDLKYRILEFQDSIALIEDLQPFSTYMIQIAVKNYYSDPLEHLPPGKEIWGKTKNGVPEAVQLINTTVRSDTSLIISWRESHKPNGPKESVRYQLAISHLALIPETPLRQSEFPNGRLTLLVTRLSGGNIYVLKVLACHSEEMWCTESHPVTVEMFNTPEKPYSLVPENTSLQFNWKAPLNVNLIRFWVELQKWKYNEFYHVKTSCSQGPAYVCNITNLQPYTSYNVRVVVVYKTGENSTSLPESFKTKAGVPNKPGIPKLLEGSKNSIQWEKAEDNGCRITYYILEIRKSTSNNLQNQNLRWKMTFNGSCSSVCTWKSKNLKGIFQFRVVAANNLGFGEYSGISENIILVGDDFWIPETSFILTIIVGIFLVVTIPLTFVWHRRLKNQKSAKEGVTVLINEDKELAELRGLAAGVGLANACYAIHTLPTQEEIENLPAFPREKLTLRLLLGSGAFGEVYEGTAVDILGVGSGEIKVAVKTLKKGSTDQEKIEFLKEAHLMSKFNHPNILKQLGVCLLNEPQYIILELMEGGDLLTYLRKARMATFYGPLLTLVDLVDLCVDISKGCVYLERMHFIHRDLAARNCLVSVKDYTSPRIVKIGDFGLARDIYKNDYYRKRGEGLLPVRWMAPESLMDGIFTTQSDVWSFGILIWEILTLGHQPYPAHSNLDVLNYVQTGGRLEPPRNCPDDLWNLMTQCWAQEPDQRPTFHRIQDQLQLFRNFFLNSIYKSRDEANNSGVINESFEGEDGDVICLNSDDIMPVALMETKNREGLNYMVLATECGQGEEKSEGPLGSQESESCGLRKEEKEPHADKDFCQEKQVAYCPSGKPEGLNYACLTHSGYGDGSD
Chain of Protein cereblon/Focal adhesion kinase 1 (Q05397 whole entry): as the sequence (Q05397 whole entry, the tested form may be a part) above
Chain of Protein cereblon/Focal adhesion kinase 1 (Q96SW2 whole entry): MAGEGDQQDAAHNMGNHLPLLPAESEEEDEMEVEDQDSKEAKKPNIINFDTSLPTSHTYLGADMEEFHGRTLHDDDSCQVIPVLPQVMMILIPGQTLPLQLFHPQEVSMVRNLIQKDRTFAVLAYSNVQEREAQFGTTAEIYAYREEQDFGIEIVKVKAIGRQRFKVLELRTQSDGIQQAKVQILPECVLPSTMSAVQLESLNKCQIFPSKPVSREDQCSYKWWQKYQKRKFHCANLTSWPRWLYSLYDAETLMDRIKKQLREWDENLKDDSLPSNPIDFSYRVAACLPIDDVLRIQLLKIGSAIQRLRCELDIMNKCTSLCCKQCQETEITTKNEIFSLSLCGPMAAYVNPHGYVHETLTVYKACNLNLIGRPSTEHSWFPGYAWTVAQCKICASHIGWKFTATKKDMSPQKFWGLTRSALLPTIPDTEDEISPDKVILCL

SMILES: CNC(=O)c1ccccc1Nc1ncnc(Nc2cc(OC)c(OC)c(OC)c2)n1
- IC50 [1]: 370 nM

SMILES: OCC[N+]12CN3CN(CN(C3)C1)C2
- IC50 (Focal adhesion kinase 1 [2]): 50 nM

SMILES: Cc1ncsc1-c1ccc(CNC(=O)[C@@H]2C[C@@H](O)CN2C(=O)[C@@H](NC(=O)CCOCCOc2ccc(Nc3ncc(C(F)(F)F)c(NCc4cccc(N(C)S(C)(=O)=O)c4)n3)cc2)C(C)(C)C)cc1
- DC50 [3]: 3 nM

SMILES: CNC(=O)c1ccccc1Nc1cc(Nc2cc(C)c(C3CCN(CCCCCCNC(=O)COc4cccc5c4C(=O)N(C4CCC(=O)NC4=O)C5=O)CC3)cc2OC(C)C)ncc1C(F)(F)F (stereo not drawn)
- IC50 (Focal adhesion kinase 1 [4]): 26 nM

SMILES: C=CC(=O)NCCNc1c(NCc2ccc(Nc3ncc(Cl)c(Nc4ccccc4C(=O)NC)n3)cc2)c(=O)c1=O
- bioavailability [5]: 21%

SMILES: CNC(=O)c1ccccc1Nc1nc(Nc2ccc(NC(=O)CN3CCOCC3)c(C)c2)ncc1Cl
- IC50 (Focal adhesion kinase 1 [6]): 1.03 nM
- IC50 [7]: 3.89 nM

SMILES: CNC(=O)c1ccccc1Nc1cc(Nc2ccc(N3CCN(CC(=O)N[C@H](C(=O)N4C[C@H](O)C[C@H]4C(=O)N[C@@H](C)c4ccc(-c5scnc5C)cc4)C(C)(C)C)CC3)cc2OC)ncc1C(F)(F)F
- IC50 (Focal adhesion kinase 1 [8]): 1.58 nM

SMILES: CN(c1ncccc1CNc1nc(Nc2ccc(N3CCN(CCCCCCC(=O)NCCNc4cccc5c4C(=O)N(C4CCC(=O)NC4=O)C5=O)CC3)cc2)ncc1C(F)(F)F)S(C)(=O)=O (stereo not drawn)
- half-life [9]: > 3.25 h

SMILES: O=C(CSC1Nc2ccccc2C(=O)N1c1ccccc1)N1CCN(c2ccccc2Cl)CC1 (stereo not drawn)
- IC50 (Focal adhesion kinase 1 [4]): 86 nM
- IC50 [10]: 79 nM

SMILES: CNC(=O)c1ccccc1Nc1cc(Nc2ccc(NC(=O)CCCCCCC(=O)NO)cc2)ncc1Cl
- IC50 (Focal adhesion kinase 1 [11]): 132 nM
- IC50 [12]: 16 nM

SMILES: Cn1cc(-c2nn3cc(-c4ccco4)nc3s2)c2ccccc21
- IC50 (BXPC-3): 1040 nM

SMILES: CNC(=O)c1ccccc1Nc1cc(Nc2cc(C)c(C3CCNCC3)cc2OC(C)C)ncc1C(F)(F)F
- IC50 [13]: 623 nM

SMILES: CNC(=O)c1ccccc1Nc1nc(Nc2ccc(N3CCN(C)CC3)cc2)nc2[nH]ccc12
- IC50 (Focal adhesion kinase 1 [4]): 19.1 nM

SMILES: Clc1cccc(Cn2ccc3cnc(Nc4ccc(N5CCNCC5)cc4)nc32)c1
- IC50 (Focal adhesion kinase 1 [14]): 9.9 nM

SMILES: O=C1CCc2cccc(Oc3nc(Nc4ccc(N5CCN(C(=S)SCCCN6CCOCC6)CC5)cc4)ncc3C(F)(F)F)c21
- IC50 (Focal adhesion kinase 1 [4]): 45 nM

SMILES: Cc1cc(Nc2ncc(Cl)c(Nc3ccccc3S(=O)(=O)C(C)C)n2)c(OC(C)C)cc1C1=CCN(C2CCOCC2)CC1 [APG-2449]
- IC50 (Focal adhesion kinase 1 [4]): 5.4 nM
- IC50 [15]: 1.6 nM
- IC50 [16]: 0.81 nM

SMILES: CNC(=O)c1ccc(Nc2ncc(C(F)(F)F)c(NCc3nccnc3N(C)S(C)(=O)=O)n2)cc1 [DEFACTINIB]
- IC50 [17]: 0.6 nM

SMILES: CONC(=O)c1ccccc1Nc1cc(Nc2cc(C)nn2C(C)C)ncc1Cl [GSK-2256098]
- Ki (Focal adhesion kinase 1 [18]): 0.4 nM
